For series [1] the following is noted: human gut metagenome, 24 h, 2 µM.
The conditions of series [2]: human gut metagenome, 24 h, 2 µM. The source holds these as a separate data set.
For series [3] the following is noted: human gut metagenome, 24 h, 2 µM. The source holds these as a separate data set.
For series [4] the following is noted: human gut metagenome, 24 h, 2 µM. The source holds these as a separate data set.
For series [5] the following is noted: human gut metagenome, 24 h, 2 µM. The source holds these as a separate data set.
The conditions of series [6]: human gut metagenome, 24 h, 2 µM. The source holds these as a separate data set.
Series [7] can be described thus: The drug is tested on WLS-039 corresponding to human gut metagenome with ENA study accession number: PRJEB37062 and ENA sample accession number: ERS12561746 for biotransformation under anaerobic condition. The drug concentrations were measured over 9 timepoints collected between 0 and 24 hours of incubation by liquid-chromatography-coupled mass spectrometry (LC–MS). As to conditions: 2 µM.

Series [8] can be described thus: The drug is tested on WLS-069 corresponding to human gut metagenome with ENA study accession number: PRJEB37062 and ENA sample accession number: ERS12561748 for biotransformation under anaerobic condition. The drug concentrations were measured over 9 timepoints collected between 0 and 24 hours of incubation by liquid-chromatography-coupled mass spectrometry (LC–MS). As to conditions: 2 µM.

For series [9] the following is noted: human gut metagenome, 24 h, 2 µM. This is another data set of the same source.

Results on 15 compounds are retold here after ChEMBL document CHEMBL5724914, “Linking interpersonal differences in gut microbiota composition and drug biotransformation activity” (2024).
Also: call rule not given here.

Turning to `CC#CCn1c(N2CCC[C@@H](N)C2)nc2c1c(=O)n(Cc1nc(C)c3ccccc3n1)c(=O)n2C` [LINAGLIPTIN], the “Bacterial Biotransformation” value in series [1], in [2], in series [3], in series [4], in [5] and in [6] was “Compound NOT metabolized” each time. Moreover, the “Bacterial Biotransformation” value is given as “Compound metabolized” in series [7], “Compound NOT metabolized” in series [8] and “Compound NOT metabolized” in [9].

In the case of `CN(CCOc1ccc(CC2SC(=O)NC2=O)cc1)c1ccccn1.O=C(O)/C=C\C(=O)O` (stereo not given) [ROSIGLITAZONE MALEATE], the “Bacterial Biotransformation” value in series [1] is reported as “Compound NOT metabolized”; in series [2] it was “Compound NOT metabolized”; in [3], “Compound metabolized”; in series [4], “Compound metabolized”; in series [5] it was “Compound NOT metabolized”; in series [6], “Compound NOT metabolized”. The “Bacterial Biotransformation” value was “Compound NOT metabolized” in series [7], “Compound metabolized” in series [8] and “Compound metabolized” in series [9].

For the compound `CCS(=O)(=O)CCn1c([N+](=O)[O-])cnc1C` [TINIDAZOLE], the “Bacterial Biotransformation” value in [1], in series [2], in series [3], in [4], in series [5] and in series [6] was “Compound metabolized” in each case. For the same compound, the “Bacterial Biotransformation” value in series [7], in series [8] and in [9] was “Compound metabolized” each time.

Regarding `CCOC(=O)C1=C(C)NC(C)=C(C(=O)OC)C1c1cccc([N+](=O)[O-])c1` (stereo not given) [NITRENDIPINE], the “Bacterial Biotransformation” value in [1], in series [2], in series [3], in series [4], in series [5] and in series [6] was “Compound metabolized” each time. Besides, the “Bacterial Biotransformation” value in [7], in [8] and in [9] was “Compound metabolized” each time.

On to `COc1ccnc(C[S+]([O-])c2nc3ccc(OC(F)F)cc3[nH]2)c1OC` (stereo not given) [PANTOPRAZOLE], for which the “Bacterial Biotransformation” value in series [1], in series [2], in [3], in series [4], in series [5] and in [6] was “Compound metabolized” throughout. Further, the “Bacterial Biotransformation” value in series [7], in series [8] and in [9] was “Compound metabolized” each time.

As for `Cc1nc(Nc2ncc(C(=O)Nc3c(C)cccc3Cl)s2)cc(N2CCN(CCO)CC2)n1` [DASATINIB ANHYDROUS], the “Bacterial Biotransformation” value in series [1] is “Compound NOT metabolized”; in series [2] it was “Compound NOT metabolized”; in series [3], “Compound metabolized”; in series [4] it was “Compound metabolized”; in series [5], “Compound NOT metabolized”; in series [6], “Compound NOT metabolized”. The “Bacterial Biotransformation” value in [7] is on record as “Compound metabolized”; in series [8], “Compound NOT metabolized”; in series [9], “Compound metabolized”.

In the case of `N#Cc1ccc2c(c1)N(CCCN1CCC(O)CC1)c1ccccc1S2` [PERICIAZINE], the “Bacterial Biotransformation” value in series [1] is recorded as “Compound NOT metabolized”; in series [2], “Compound metabolized”; in series [3], “Compound metabolized”; in series [4] it was “Compound metabolized”; in series [5], “Compound NOT metabolized”; in [6], “Compound NOT metabolized”. Further, the “Bacterial Biotransformation” value is given as “Compound NOT metabolized” in series [7], “Compound metabolized” in series [8] and “Compound NOT metabolized” in [9].

As for `C#C[C@]1(OC(C)=O)CC[C@H]2[C@@H]3CCC4=C[C@@H](OC(C)=O)CC[C@@H]4[C@H]3CC[C@@]21C` [ETHYNODIOL DIACETATE], the “Bacterial Biotransformation” value in [1], in series [2], in [3], in series [4], in series [5] and in series [6] was “Compound metabolized” throughout. The “Bacterial Biotransformation” value in series [7], in series [8] and in [9] was “Compound metabolized” in each case.

As for `CC(C)c1c(CN(C)C(C)Cc2ccccc2)n(C)n(-c2ccccc2)c1=O` (stereo not given) [FAMPROFAZONE], the “Bacterial Biotransformation” value in [1], in series [2], in [3], in [4], in [5] and in series [6] was “Compound metabolized” each time. Also, the “Bacterial Biotransformation” value in series [7], in series [8] and in [9] was “Compound metabolized” throughout.

For the compound `COCCCC/C(=N\OCCN)c1ccc(C(F)(F)F)cc1.O=C(O)/C=C\C(=O)O` [FLUVOXAMINE MALEATE], the “Bacterial Biotransformation” value in series [1], in [2], in [3], in series [4], in series [5] and in [6] was “Compound NOT metabolized” each time. Moreover, the “Bacterial Biotransformation” value in [7], in [8] and in series [9] was “Compound NOT metabolized” in each case.

For the compound `CN1CCC(=C2c3ccccc3CC(=O)c3sccc32)CC1.O=C(O)/C=C/C(=O)O` [KETOTIFEN FUMARATE], the “Bacterial Biotransformation” value in series [1] is reported as “Compound NOT metabolized”; in series [2], “Compound NOT metabolized”; in [3], “Compound metabolized”; in series [4], “Compound metabolized”; in [5], “Compound NOT metabolized”; in [6], “Compound NOT metabolized”. The “Bacterial Biotransformation” value was “Compound NOT metabolized” in series [7], “Compound NOT metabolized” in [8] and “Compound metabolized” in series [9].

Take `C=CC[C@@H]1/C=C(\C)C[C@H](C)C[C@H](OC)[C@H]2O[C@@](O)(C(=O)C(=O)N3CCCC[C@H]3C(=O)O[C@H](/C(C)=C/[C@@H]3CC[C@@H](O)[C@H](OC)C3)[C@H](C)[C@@H](O)CC1=O)[C@H](C)C[C@@H]2OC.O` [TACROLIMUS]: the “Bacterial Biotransformation” value in [1] is reported as “Compound metabolized”; in series [2], “Compound metabolized”; in series [3], “Compound metabolized”; in [4], “Compound metabolized”; in series [5], “Compound metabolized”; in series [6], “Compound NOT metabolized”. The “Bacterial Biotransformation” value in [7], in [8] and in series [9] was “Compound metabolized” in each case.

Consider `C[C@]12C=CC(=O)C=C1CC[C@@H]1[C@@H]2C(=O)C[C@@]2(C)[C@H]1CC[C@]2(O)C(=O)CO` [PREDNISONE], for which the “Bacterial Biotransformation” value in series [1], in series [2], in series [3], in [4], in series [5] and in [6] was “Compound metabolized” each time. The “Bacterial Biotransformation” value in [7], in series [8] and in series [9] was “Compound metabolized” each time.

Consider `C#C[C@]1(OC(C)=O)CC[C@H]2[C@@H]3CCC4=C/C(=N/O)CC[C@@H]4[C@H]3CC[C@@]21CC` [NORGESTIMATE], for which the “Bacterial Biotransformation” value in [1] is “Compound metabolized”; in series [2] it was “Compound metabolized”; in series [3], “Compound metabolized”; in series [4], “Compound metabolized”; in [5] it was “Compound NOT metabolized”; in [6], “Compound NOT metabolized”. Moreover, the “Bacterial Biotransformation” value in series [7], in [8] and in series [9] was “Compound metabolized” in each case.

In the case of `CC[C@H](C)C(=O)O[C@H]1CCC=C2C=C[C@H](C)[C@H](CC[C@@H]3C[C@@H](O)CC(=O)O3)[C@H]21` [MEVASTATIN], the “Bacterial Biotransformation” value in [1] was “Compound metabolized”; in series [2], “Compound metabolized”; in series [3] it was “Compound metabolized”; in [4], “Compound metabolized”; in series [5], “Compound metabolized”; in series [6], “Compound NOT metabolized”. For the same compound, the “Bacterial Biotransformation” value in series [7], in series [8] and in [9] was “Compound metabolized” each time.
